No end group written: not given here.
Assay: Plasma pharmacokinetics of ALM201 in Phase I patients (validated LC-MS/MS, Phoenix WinNonlin)
Conditions: human, plasma, sc; for level at 3 h: day 1 cycle 1, 3 h after dosing; for Tmax: median; for Tmax / AUC(0-t) / Cmax: plasma LC-MS/MS; for AUC(0-t): AUC0-t; for AUC(0-t) / Cmax: Gmean (CV); for level at 0.25 h: day 1 cycle 1, 0.25 h after dosing; for level at 0.75 h: day 1 cycle 1, 0.75 h after dosing; for level at 4 h: day 1 cycle 1, 4 h after dosing
[1] = 40 mg, 40 mg SC, day 1 cycle 1, n = 1
[2] = 40 mg, 40 mg SC, day 3 cycle 1, n = 1
[3] = 40 mg, 40 mg SC, day 18 cycle 1, n = 1
[4] = 40 mg, 40 mg SC, day 18 cycle 2, n = 1
[5] = 40 mg, Plasma concentration, geometric mean (CV%), 40 mg SC, n = 1, LC-MS/MS
[6] = 80 mg, 80 mg SC, day 1 cycle 1, n = 3
[7] = 80 mg, 80 mg SC, day 3 cycle 1, n = 3
[8] = 80 mg, 80 mg SC, day 18 cycle 1, n = 2, CV not calculated
[9] = 80 mg, 80 mg SC, day 18 cycle 2, n = 1
[10] = 80 mg, Plasma concentration, geometric mean (CV%), 80 mg SC, n = 3, LC-MS/MS

IRQQPRDPPTETLELEVSPDPAS [ALM201]
level at 1.5 h (20 mg, Plasma concentration, geometric mean (CV%), 20 mg SC, day 1 cycle 1, 1.5 h after dosing, n = 1, LC-MS/MS): 542 ng/mL
level at 2 h (20 mg, Plasma concentration, geometric mean (CV%), 20 mg SC, day 1 cycle 1, 2 h after dosing, n = 1, LC-MS/MS): 417 ng/mL
level at 3 h (20 mg, Plasma concentration, geometric mean (CV%), 20 mg SC, n = 1, LC-MS/MS): 224 ng/mL
level at 0.5 h (20 mg, Plasma concentration, geometric mean (CV%), 20 mg SC, day 3 cycle 1, 0.5 h after dosing, n = 1, LC-MS/MS): 210 ng/mL
level at 1 h (20 mg, Plasma concentration, geometric mean (CV%), 20 mg SC, day 3 cycle 1, 1 h after dosing, n = 1, LC-MS/MS): 614 ng/mL
level at 1.5 h (20 mg, Plasma concentration, geometric mean (CV%), 20 mg SC, day 3 cycle 1, 1.5 h after dosing, n = 1, LC-MS/MS): 532 ng/mL
level at 2 h (20 mg, Plasma concentration, geometric mean (CV%), 20 mg SC, day 3 cycle 1, 2 h after dosing, n = 1, LC-MS/MS): 377 ng/mL
level at 3.5 h (20 mg, Plasma concentration, geometric mean (CV%), 20 mg SC, day 3 cycle 1, 3.5 h after dosing, n = 1, LC-MS/MS): 134 ng/mL
level at 0.5 h (20 mg, Plasma concentration, geometric mean (CV%), 20 mg SC, day 18 cycle 1, 0.5 h after dosing, n = 1, LC-MS/MS): 194 ng/mL
level at 1 h (20 mg, Plasma concentration, geometric mean (CV%), 20 mg SC, day 18 cycle 1, 1 h after dosing, n = 1, LC-MS/MS): 319 ng/mL
level at 1.5 h (20 mg, Plasma concentration, geometric mean (CV%), 20 mg SC, day 18 cycle 1, 1.5 h after dosing, n = 1, LC-MS/MS): 314 ng/mL
level at 2 h (20 mg, Plasma concentration, geometric mean (CV%), 20 mg SC, day 18 cycle 1, 2 h after dosing, n = 1, LC-MS/MS): 224 ng/mL
level at 3.5 h (20 mg, Plasma concentration, geometric mean (CV%), 20 mg SC, day 18 cycle 1, 3.5 h after dosing, n = 1, LC-MS/MS): 113 ng/mL
level at 0.5 h (20 mg, Plasma concentration, geometric mean (CV%), 20 mg SC, day 18 cycle 2, 0.5 h after dosing, n = 1, LC-MS/MS): 279 ng/mL
level at 1 h (20 mg, Plasma concentration, geometric mean (CV%), 20 mg SC, day 18 cycle 2, 1 h after dosing, n = 1, LC-MS/MS): 394 ng/mL
level at 1.5 h (20 mg, Plasma concentration, geometric mean (CV%), 20 mg SC, day 18 cycle 2, 1.5 h after dosing, n = 1, LC-MS/MS): 352 ng/mL
level at 2 h (20 mg, Plasma concentration, geometric mean (CV%), 20 mg SC, day 18 cycle 2, 2 h after dosing, n = 1, LC-MS/MS): 386 ng/mL
level at 3.5 h (20 mg, Plasma concentration, geometric mean (CV%), 20 mg SC, day 18 cycle 2, 3.5 h after dosing, n = 1, LC-MS/MS): 162 ng/mL
Tmax (20 mg, 20 mg SC, day 1 cycle 1, n = 1): 1.5 h
Tmax (20 mg, 20 mg SC, day 3 cycle 1, n = 1): 1 h
Tmax (20 mg, 20 mg SC, day 18 cycle 1, n = 1): 1.02 h
AUC(0-t) [1]: 1920 ng·h/mL
AUC(0-t) [2]: 898 ng·h/mL
AUC(0-t) [3]: 1840 ng·h/mL
AUC(0-t) [4]: 1950 ng·h/mL
Cmax [1]: 592 ng/mL
Cmax [2]: 759 ng/mL
Cmax [3]: 405 ng/mL
level at 0.25 h [5]: 316 ng/mL
level at 0.75 h [5]: 556 ng/mL
level at 1.5 h (40 mg, Plasma concentration, geometric mean (CV%), 40 mg SC, day 1 cycle 1, 1.5 h after dosing, n = 1, LC-MS/MS): 592 ng/mL
level at 2 h (40 mg, Plasma concentration, geometric mean (CV%), 40 mg SC, day 1 cycle 1, 2 h after dosing, n = 1, LC-MS/MS): 540 ng/mL
level at 3 h [5]: 368 ng/mL
level at 4 h [5]: 223 ng/mL
level at 5 h (40 mg, Plasma concentration, geometric mean (CV%), 40 mg SC, day 1 cycle 1, 5 h after dosing, n = 1, LC-MS/MS): 158 ng/mL
level at 0.5 h (40 mg, Plasma concentration, geometric mean (CV%), 40 mg SC, day 3 cycle 1, 0.5 h after dosing, n = 1, LC-MS/MS): 264 ng/mL
level at 1 h (40 mg, Plasma concentration, geometric mean (CV%), 40 mg SC, day 3 cycle 1, 1 h after dosing, n = 1, LC-MS/MS): 444 ng/mL
level at 1.5 h (40 mg, Plasma concentration, geometric mean (CV%), 40 mg SC, day 3 cycle 1, 1.5 h after dosing, n = 1, LC-MS/MS): 759 ng/mL
level at 2 h (40 mg, Plasma concentration, geometric mean (CV%), 40 mg SC, day 3 cycle 1, 2 h after dosing, n = 1, LC-MS/MS): 656 ng/mL
level at 0.5 h (40 mg, Plasma concentration, geometric mean (CV%), 40 mg SC, day 18 cycle 1, 0.5 h after dosing, n = 1, LC-MS/MS): 348 ng/mL
level at 1 h (40 mg, Plasma concentration, geometric mean (CV%), 40 mg SC, day 18 cycle 1, 1 h after dosing, n = 1, LC-MS/MS): 405 ng/mL
level at 1.5 h (40 mg, Plasma concentration, geometric mean (CV%), 40 mg SC, day 18 cycle 1, 1.5 h after dosing, n = 1, LC-MS/MS): 397 ng/mL
level at 2 h (40 mg, Plasma concentration, geometric mean (CV%), 40 mg SC, day 18 cycle 1, 2 h after dosing, n = 1, LC-MS/MS): 368 ng/mL
level at 3.5 h (40 mg, Plasma concentration, geometric mean (CV%), 40 mg SC, day 18 cycle 1, 3.5 h after dosing, n = 1, LC-MS/MS): 377 ng/mL
level at 5 h (40 mg, Plasma concentration, geometric mean (CV%), 40 mg SC, day 18 cycle 1, 5 h after dosing, n = 1, LC-MS/MS): 113 ng/mL
level at 0.5 h (40 mg, Plasma concentration, geometric mean (CV%), 40 mg SC, day 18 cycle 2, 0.5 h after dosing, n = 1, LC-MS/MS): 384 ng/mL
level at 1 h (40 mg, Plasma concentration, geometric mean (CV%), 40 mg SC, day 18 cycle 2, 1 h after dosing, n = 1, LC-MS/MS): 583 ng/mL
level at 1.5 h (40 mg, Plasma concentration, geometric mean (CV%), 40 mg SC, day 18 cycle 2, 1.5 h after dosing, n = 1, LC-MS/MS): 565 ng/mL
level at 2 h (40 mg, Plasma concentration, geometric mean (CV%), 40 mg SC, day 18 cycle 2, 2 h after dosing, n = 1, LC-MS/MS): 571 ng/mL
level at 3.5 h (40 mg, Plasma concentration, geometric mean (CV%), 40 mg SC, day 18 cycle 2, 3.5 h after dosing, n = 1, LC-MS/MS): 347 ng/mL
Tmax [1]: 1.63 h
Tmax [2]: 1.5 h
Tmax [3]: 1 h
Tmax [4]: 1.03 h
AUC(0-t) [6]: 3380 ng·h/mL
AUC(0-t) [7]: 2970 ng·h/mL
AUC(0-t) [8]: 3500 ng·h/mL
AUC(0-t) [9]: 3230 ng·h/mL
Cmax [6]: 835 ng/mL
Cmax [7]: 861 ng/mL
Cmax [8]: 1090 ng/mL
Cmax [9]: 849 ng/mL
level at 0.25 h [10]: 292 ng/mL
level at 0.75 h [10]: 700 ng/mL
level at 1.5 h (80 mg, Plasma concentration, geometric mean (CV%), 80 mg SC, day 1 cycle 1, 1.5 h after dosing, n = 3, LC-MS/MS): 800 ng/mL
level at 2 h (80 mg, Plasma concentration, geometric mean (CV%), 80 mg SC, day 1 cycle 1, 2 h after dosing, n = 3, LC-MS/MS): 727 ng/mL
level at 3 h [10]: 689 ng/mL
level at 4 h [10]: 556 ng/mL
level at 5 h (80 mg, Plasma concentration, geometric mean (CV%), 80 mg SC, day 1 cycle 1, 5 h after dosing, n = 3, LC-MS/MS): 359 ng/mL
level at 6 h (80 mg, Plasma concentration, geometric mean (CV%), 80 mg SC, day 1 cycle 1, 6 h after dosing, n = 3, LC-MS/MS): 248 ng/mL
level at 0.5 h (80 mg, Plasma concentration, geometric mean (CV%), 80 mg SC, day 3 cycle 1, 0.5 h after dosing, n = 3, LC-MS/MS): 578 ng/mL
level at 1 h (80 mg, Plasma concentration, geometric mean (CV%), 80 mg SC, day 3 cycle 1, 1 h after dosing, n = 3, LC-MS/MS): 684 ng/mL
level at 1.5 h (80 mg, Plasma concentration, geometric mean (CV%), 80 mg SC, day 3 cycle 1, 1.5 h after dosing, n = 3, LC-MS/MS): 827 ng/mL
level at 2 h (80 mg, Plasma concentration, geometric mean (CV%), 80 mg SC, day 3 cycle 1, 2 h after dosing, n = 3, LC-MS/MS): 826 ng/mL
level at 3.5 h (80 mg, Plasma concentration, geometric mean (CV%), 80 mg SC, day 3 cycle 1, 3.5 h after dosing, n = 3, LC-MS/MS): 524 ng/mL
level at 5 h (80 mg, Plasma concentration, geometric mean (CV%), 80 mg SC, day 3 cycle 1, 5 h after dosing, n = 3, LC-MS/MS): 325 ng/mL
level at 0.5 h (80 mg, Plasma concentration, geometric mean (CV%), 80 mg SC, day 18 cycle 1, 0.5 h after dosing, n = 2, LC-MS/MS): 769 ng/mL
level at 1 h (80 mg, Plasma concentration, geometric mean (CV%), 80 mg SC, day 18 cycle 1, 1 h after dosing, n = 2, LC-MS/MS): 946 ng/mL
level at 1.5 h (80 mg, Plasma concentration, geometric mean (CV%), 80 mg SC, day 18 cycle 1, 1.5 h after dosing, n = 2, LC-MS/MS): 884 ng/mL
level at 2 h (80 mg, Plasma concentration, geometric mean (CV%), 80 mg SC, day 18 cycle 1, 2 h after dosing, n = 2, LC-MS/MS): 1060 ng/mL
level at 3.5 h (80 mg, Plasma concentration, geometric mean (CV%), 80 mg SC, day 18 cycle 1, 3.5 h after dosing, n = 2, LC-MS/MS): 545 ng/mL
level at 5 h (80 mg, Plasma concentration, geometric mean (CV%), 80 mg SC, day 18 cycle 1, 5 h after dosing, n = 2, LC-MS/MS): 407 ng/mL
level at 0.5 h (80 mg, Plasma concentration, geometric mean (CV%), 80 mg SC, day 18 cycle 2, 0.5 h after dosing, n = 1, LC-MS/MS): 394 ng/mL
level at 1 h (80 mg, Plasma concentration, geometric mean (CV%), 80 mg SC, day 18 cycle 2, 1 h after dosing, n = 1, LC-MS/MS): 808 ng/mL
level at 1.5 h (80 mg, Plasma concentration, geometric mean (CV%), 80 mg SC, day 18 cycle 2, 1.5 h after dosing, n = 1, LC-MS/MS): 659 ng/mL
level at 2 h (80 mg, Plasma concentration, geometric mean (CV%), 80 mg SC, day 18 cycle 2, 2 h after dosing, n = 1, LC-MS/MS): 639 ng/mL
level at 3.5 h (80 mg, Plasma concentration, geometric mean (CV%), 80 mg SC, day 18 cycle 2, 3.5 h after dosing, n = 1, LC-MS/MS): 849 ng/mL
Tmax [6]: 1.53 h
Tmax (80 mg, 80 mg SC, day 18 cycle 1, n = 2): 1.23 h

Source: PMC9276671, “A first-in-human Phase I dose-escalation trial of the novel therapeutic peptide, ALM201, demonstrates a favourable safety profile in unselected patients with ovarian cancer and other advanced solid tumours” (British Journal of Cancer, 2022)
